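48-hour exposure; five concentrations; linearly interpolated endpoints. GI50: concentration for 50% inhibition of growth.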 Active and inactive are the calls of the source. Cut-off read from the data, not from the text of the source: active = GI50 up to about 1.1 µM and inactive = higher.
Tests used:
Test in all cases: growth of human tumour cells (NCI), 48 h
[1] = system: SW-620
[2] = system: UO-31
[3] = system: SF-268
[4] = system: NCI-H460
[5] = system: HCC 2998
[6] = system: SF-539
[7] = system: NCI-H23
[8] = system: HL-60
[9] = system: K562
[10] = system: HOP-62
[11] = system: A549
[12] = system: SK-OV-3
[13] = system: EKVX
[14] = system: NCI-H522
[15] = system: OVCAR-3
[16] = system: IGROV-1
[17] = system: HT-29
[18] = system: SK-MEL-5

Measured: GI50

Cc1ncc(CCl)c2c1OC(C)(C)OC2
inactive: [1] 18.7 µM | [2] > 100 µM | [3] 22.8 µM | [4] > 100 µM | [5] > 100 µM | [6] 33.6 µM | [7] > 100 µM | [8] 27 µM | [9] 41.2 µM | [10] > 100 µM | [11] > 100 µM | [12] > 100 µM | [13] 20.5 µM | [14] 17 µM | [15] 26.1 µM | [16] > 100 µM | [17] 52.2 µM

Cn1sc2ccccc2c1=S
inactive: [1] 2.28 µM | [2] 15.3 µM | [3] 3.5 µM | [4] 13.8 µM | [5] 28.2 µM | [6] 5.83 µM | [7] 11.7 µM | [8] 5.47 µM | [9] 3.71 µM | [10] 16.5 µM | [11] 13.9 µM | [12] 36.1 µM | [13] 8.69 µM | [14] 3.16 µM | [18] 12.4 µM | [15] 4.2 µM | [16] 13 µM | [17] 10.7 µM

CCCCOC(=O)NC(=O)c1cn(CCCOC(=O)CCCCCCCCC(=O)OCCCn2cc(C(=O)NC(=O)OCCCC)c(=O)n(C)c2=O)c(=O)n(C)c1=O
inactive: [1] > 100 µM | [2] > 100 µM | [3] > 100 µM | [4] > 100 µM | [5] > 100 µM | [6] > 100 µM | [7] > 100 µM | [8] > 100 µM | [9] > 100 µM | [10] > 100 µM | [11] > 100 µM | [13] > 100 µM | [14] > 100 µM | [18] > 100 µM | [15] > 100 µM | [16] > 100 µM | [17] > 100 µM

N=C(N)NCCCC(NCc1c2ccccc2[n+]([O-])c2ccccc12)C(=O)O (stereo not drawn)
inactive: [1] 39.8 µM | [2] 23.6 µM | [3] 33.8 µM | [4] 41.6 µM | [5] 74.5 µM | [7] 42.2 µM | [8] 24.9 µM | [9] 29.7 µM | [10] > 100 µM | [11] > 100 µM | [12] > 100 µM | [13] > 100 µM | [14] 27 µM | [18] 36.4 µM | [15] > 100 µM | [16] 71.9 µM | [17] 37.3 µM

CC(C)=CCC/C(C)=C/Cc1c(O)ccc2c1[nH]c1cc(O)c(C)cc12
inactive: [1] 13.9 µM | [2] 7.73 µM | [3] 10.7 µM | [4] 11.9 µM | [5] 11 µM | [6] 6.95 µM | [8] 7.53 µM | [9] 9.38 µM | [10] 7.62 µM | [11] 8.87 µM | [12] 24.2 µM | [14] 7.96 µM | [18] 16.6 µM | [15] 5.73 µM | [16] 14.7 µM | [17] > 25 µM

COc1cc(O)c(C(=O)C2Cc3ccccc32)c(OC)c1 (stereo not drawn)
inactive: [1] 59.7 µM | [2] 33.5 µM | [3] 67.8 µM | [4] 61.8 µM | [5] 49.1 µM | [6] > 100 µM | [8] 13 µM | [9] 32.7 µM | [10] > 100 µM | [11] 35.8 µM | [12] > 100 µM | [14] 32.7 µM | [18] 29.6 µM | [16] > 100 µM | [17] 35.3 µM

CC/C=C/c1cc2c(c3[nH]ccc13)[C@@H](C)CC2C.CC/C=C/c1cc2cc[nH]c2c2c1C(C)C[C@@H]2C.CCc1cc2c(c3[nH]ccc13)[C@@H](C)CC2C (stereo partly drawn)
inactive: [1] 16.9 µM | [2] 16.6 µM | [3] 15.5 µM | [4] 15.2 µM | [5] 3.08 µM | [6] 16.1 µM | [7] 17.4 µM | [8] 18.3 µM | [10] 16.3 µM | [11] 21.4 µM | [13] 18.4 µM | [14] 15.6 µM | [17] 14.4 µM

Cc1nc(C(=O)O)c2ccccc2n1
inactive: [1] > 100 µM | [2] > 100 µM | [3] > 100 µM | [4] > 100 µM | [5] > 100 µM | [6] > 100 µM | [7] > 100 µM | [8] > 100 µM | [9] > 100 µM | [11] > 100 µM | [12] > 100 µM | [18] > 100 µM | [15] > 100 µM | [16] > 100 µM | [17] > 100 µM

CCN(CC)/C(=C\Cl)Nc1ccccn1.[O-][Cl+3]([O-])([O-])O
inactive: [1] > 100 µM | [2] > 100 µM | [3] > 100 µM | [4] > 100 µM | [5] > 100 µM | [6] > 100 µM | [7] > 100 µM | [8] > 100 µM | [9] > 100 µM | [10] > 100 µM | [11] > 100 µM | [12] > 100 µM | [13] > 100 µM | [14] > 100 µM | [18] > 100 µM | [15] > 100 µM | [16] > 100 µM | [17] > 100 µM

CCc1cc(C)cc2[n+]1CC=C2C.[O-][Cl+3]([O-])([O-])[O-]
inactive: [1] > 100 µM | [2] > 100 µM | [3] > 100 µM | [4] > 100 µM | [5] > 100 µM | [6] > 100 µM | [7] 66.1 µM | [8] 18.2 µM | [10] > 100 µM | [11] > 100 µM | [13] > 100 µM | [14] 49.7 µM | [18] > 100 µM | [15] 93.1 µM | [17] > 100 µM

CCOC(OCC)(OCC)C(Br)CC (stereo not drawn)
inactive: [2] > 100 µM | [3] 36.7 µM | [4] > 100 µM | [5] > 100 µM | [6] > 100 µM | [7] > 100 µM | [8] > 100 µM | [9] > 100 µM | [10] > 100 µM | [11] > 100 µM | [12] > 100 µM | [13] > 100 µM | [14] > 100 µM | [18] > 100 µM | [15] > 100 µM | [16] > 100 µM | [17] 53.6 µM

CCCCCCCC(=O)OCC1OC(n2cc(F)c(=O)[nH]c2=O)C(N)C(OC(=O)CCCCCCC)C1O (stereo not drawn)
inactive: [1] 18.4 µM | [2] 19.5 µM | [3] 18.5 µM | [4] 19.4 µM | [5] 16.5 µM | [6] 20.5 µM | [7] 20.1 µM | [8] 20.2 µM | [10] 18.6 µM | [11] 18.3 µM | [12] 28.8 µM | [13] 19.1 µM | [14] 14.5 µM | [18] 10.5 µM | [15] 20.8 µM | [16] 20.3 µM | [17] 19.3 µM

CC(=O)OCc1ncccc1C(OC(C)=O)OC(C)=O
inactive: [1] > 100 µM | [2] > 100 µM | [3] > 100 µM | [4] > 100 µM | [6] > 100 µM | [7] > 100 µM | [8] > 100 µM | [9] > 100 µM | [10] > 100 µM | [11] > 100 µM | [12] > 100 µM | [13] > 100 µM | [14] > 100 µM | [18] > 100 µM | [15] > 100 µM | [16] > 100 µM | [17] > 100 µM

CCN(CC)CCCC(C)Nc1c2cc(OC)cc(C)c2nc2c(C)c(Cl)ccc12 (stereo not drawn)
inactive: [1] 1.85 µM | [2] 1.71 µM | [3] 1.97 µM | [4] 1.8 µM | [5] 1.63 µM | [7] 1.48 µM | [8] 2.15 µM | [9] 1.83 µM | [10] 1.66 µM | [11] 1.89 µM | [12] 1.67 µM | [13] 1.85 µM | [14] 1.67 µM | [18] 1.87 µM | [15] 1.79 µM | [16] 1.67 µM | [17] 1.62 µM

CC1CCC2[C@@H](C)COC3O[C@]4(C)CCC1C32OO4 (stereo partly drawn)
inactive: [1] > 100 µM | [2] 54.1 µM | [3] > 100 µM | [4] > 100 µM | [5] > 100 µM | [6] > 100 µM | [7] > 100 µM | [9] 38.9 µM | [10] > 100 µM | [11] > 100 µM | [12] > 100 µM | [13] > 100 µM | [14] > 100 µM | [18] > 100 µM | [15] > 100 µM | [16] > 100 µM | [17] > 100 µM

COc1ccc2cc3n(c(=O)c2c1)CCc1c-3cc(OC)c(OC)c1OC
inactive: [1] > 100 µM | [2] > 100 µM | [3] > 100 µM | [5] > 100 µM | [6] 60 µM | [7] > 100 µM | [8] > 100 µM | [9] > 100 µM | [10] 68.1 µM | [11] > 100 µM | [12] > 100 µM | [13] > 100 µM | [14] > 100 µM | [18] > 100 µM | [15] > 100 µM | [16] > 100 µM | [17] > 100 µM
